Assay [1] relates to leukocyte/macrophage infiltration in the vasculature. Nature of the assay: FACS of single cells from mouse suprarenal aorta. In kind it is in vivo. Particulars: mean±SEM. From the text:
(§1) FIG. 2. […] (A) Quantification of gene expression levels in the mice suprarenal aorta region by real-time PCR (n=3 to 4). (B, C) Serum cytokines levels measured by ELISA (n=8 to 11). (D) FACS of single cells isolated from the mice suprarenal aorta region. Each sample is the pool of cells from three mice (n=3). (E, F) Quantification of the percentage of CD45+ leukocytes and CD64+, CD11c+M1-like macrophages in total cells from the FACS analysis. Ordinary one-way ANOVA followed by Tukey's test was performed for (A), (E) and (F). For ELISA in (B) and (C), to avoid the effect of the non-detected data point, a non-parametric Kruskal-Wallis test followed by Dunn's multiple comparisons was performed by adding zero to the missing data point. Data presented as mean±SEM. A p<0.05 for both the main test and post hoc test was considered statistically significant.
The suprarenal aorta region from euthanized mice were completely perfused with PBS containing 2% of heparin. Tissues were digested using a cocktail of 450 U/mL collagenase type I (#17100-017, Gibco), 125 U/mL collagenase type XI (#C7657, Sigma-Aldrich), 60 U/mL hyaluronidase type I-s (#H3606, Sigma-Aldrich) and 60 U/mL DNase-I (#10104159001, Roche) at 37° C. for 90 minutes. Single cells filtered through a 70 μm cell strainer were blocked by Fc block (#14-0161-85, eBioscience) for 5 minutes on ice. […] Data were analyzed using FlowJo v10.6.1.

In the next assay the target is T1, EP4 Gs-coupled receptor (Homo sapiens, UniProt P35408).
T1 construct: expressed in transfected cells; host or cells: 293T cells
T1 sequence (P35408 whole entry): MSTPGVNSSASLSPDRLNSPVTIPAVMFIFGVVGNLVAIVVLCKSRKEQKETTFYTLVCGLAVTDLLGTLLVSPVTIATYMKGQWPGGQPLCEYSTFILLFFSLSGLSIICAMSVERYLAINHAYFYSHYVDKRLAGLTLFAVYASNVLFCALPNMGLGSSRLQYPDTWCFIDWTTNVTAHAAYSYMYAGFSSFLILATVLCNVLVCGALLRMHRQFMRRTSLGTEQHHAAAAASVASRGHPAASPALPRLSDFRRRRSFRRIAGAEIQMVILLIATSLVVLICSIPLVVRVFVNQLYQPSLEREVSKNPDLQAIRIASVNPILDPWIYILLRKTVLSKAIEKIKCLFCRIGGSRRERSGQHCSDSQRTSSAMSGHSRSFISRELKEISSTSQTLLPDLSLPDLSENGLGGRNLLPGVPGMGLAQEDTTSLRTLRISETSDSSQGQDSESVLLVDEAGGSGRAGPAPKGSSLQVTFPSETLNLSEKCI
The experiment in a line: cAMP HTRF assay in 293T cells overexpressing EP4. In kind it is cell-based. Particulars: read-out: best-fit IC50, reduction of PGE2-induced recruitment of cAMP. As for the experimental part:
FIG. 4. NO2—OA inhibits PGE2-dependent EP4 cAMP downstream signaling. (A) Three parameters nonlinear regression of EP4 global fitting dose-response curve. […] (B) HTRF assay of cAMP-Gs coupled receptor. […] (D) Representative figure of gelatin zymography indicating MMP 2/9 activity. BMDMs were incubated with L-902,688 (100 nM) plus vehicle, OA (2.5 μM) or NO2—OA (2.5 μM) for 12 h, and MMP 2&9 activity was measured by gelatin zymography. For (A) and (B), three or four parameters, global or separate fitting, constraints, and the significance of EC50 were determined in Prism. Data presented as mean±SEM. A p<0.05 was considered statistically significant.
Cells at 80% density were incubated on plates coated with transfection complex containing human EP4 receptors and a cAMP response element-regulated secreted alkaline phosphatase (SEAP) reporter. Activation of EP4 was quantified by adding a luminance-based alkaline phosphatase substrate and read in a chemiluminescence plate reader relative to the kit's standards. EP4 Inhibition assay was performed using cAMP-Gs HiRange kit (#62AM6PEB, Cisbio) following the manufacture's protocol and measured by Neo2 plate reader (BioTek, Winooski, Vt.). HTRF ratio (665/620) was converted to cAMP concentration using a cAMP standard.

A further assay concerns circulating MCP1 and IL6. The experiment in a line: Circulating cytokine ELISA in AAA model mice. In kind it is in vivo, mouse.
Source text: as §1
MCP1, TNFα and IL6 levels in mouse plasma were measured by ELISA performed by the Cancer Center Immunology Core at the University of Michigan.

SMILES strings stand for the structures. pIC50: −log10 of the molar value.

Consider `CCCCCCCCC(=CCCCCCCCC(=O)O)[N+](=O)[O-]` [NO2—OA, 10-nitro-octadec-9-enoic acid], for which, in assay [1], the “leucocytes (CD45+) in the vasculature, percentage of total cells” value was 14.87±3.28% and the “pro-inflammatory M1 like macrophages (CD64+, CD11c+), percentage of total cells” value is given as 3.27±0.42%. Also, the pIC50 at EP4 Gs-coupled receptor was 5.55. Moreover, in the assay on circulating MCP1 and IL6, the “protein level of circulating IL6” value is reported as “significantly decreased” and the “protein level of circulating MCP1” value is “significantly decreased”.

The values above are taken from patent US12728111B2, “Electrophilic compounds and electrophilic prodrugs for treating aneurysm” (University of Pittsburgh—Of the Commonwealth System of …, priority 2020, dated 2026).
